Measurements: article PMC5146859, “Phase 1/2 study of pacritinib, a next generation JAK2/FLT3 inhibitor, in myelofibrosis or other myeloid malignancies” (Journal of Hematology & Oncology, 2016)
Marks after values point to notes of the source that are not given here.

Tests used:
patients with MF [1] = assay: Phase 2 MF Quality of Life and Symptoms Assessment Tool; format: in vivo, human; conditions: phase 2, 400 mg QD
Method: In phase 2, abdominal MRI to assess spleen and liver volume was performed on day 1 of cycles 1, 4, and 7 and then day 1 of every third cycle through cycle 25. Spleen size (length) was also assessed by manual palpation with each scheduled physical examination. The phase 2 study protocol was amended in September 2009 to include the MF Quality of Life and Symptoms Assessment Tool. […] The instrument was administered pre-dose on day 1 of cycles 1, 2, 4, 7, and 10 and then on day 1 of every third cycle through cycle 25.
The primary endpoint of the phase 2 component was the proportion of the efficacy population who achieved a ≥35% reduction in spleen volume from baseline at week 24, as measured by MRI. Spleen response rate was also assessed in terms of a ≥35% reduction in spleen volume by MRI up to week 24 and end of treatment and as a ≥50% reduction in spleen length by physical examination up to week 24 and end of treatment. Duration of response was not analyzed due to limitations in the proportion of responders. An exploratory endpoint was the proportion of patients with a ≥50% reduction in MF Quality of Life and Symptoms Assessment Tool at week 24 compared with baseline.

patients with MF [2] = assay: Phase 2 hematologic parameters and transfusions; format: in vivo, human
Method: At screening/baseline, patients underwent a medical history, physical examination, vital sign assessment, ECOG PS assessment, electrocardiogram, and assessment of hematologic parameters and blood chemistry. Hematology/blood chemistry, physical examinations, and vital sign assessments were performed throughout treatment. Toxicity was assessed using the National Cancer Institute Common Terminology Criteria for Adverse Events (NCIC-CTCAE), version 3.0, with relationship to treatment assigned by the investigator and were recorded from the first dose of pacritinib until 30 days after the last dose. Bone marrow biopsy and/or aspirate samples were drawn at baseline, on day 1 of cycle 4 and cycle 10, as clinically indicated, and at the termination visit. Disease response and progression were determined using the relevant International Working Group (IWG) criteria.

[3] = phase 2, during the study, n = 31

SMILES: C1=C/COCc2cc(ccc2OCCN2CCCC2)Nc2nccc(n2)-c2cccc(c2)COC/1 [pacritinib, 11-(2-pyrrolidin-1-yl-ethoxy)-14,19-dioxa-5,7,26-triaza-tetracyclo[19.3.1.1(2,6). 1(8,12)]heptacosa-1(25),2(26),3,5,8,10,12(27),16,21,23-decaene]
- Individual symptoms and overall quality of life score (patients with MF [1]): Improvement was seen in each of the individual symptoms
- Bone pain, Mean percent change from baseline at Week 24 (SD) (patients with MF [1]; N = 11): -51.6 (43.04) %
- Night sweats, Mean percent change from baseline at Week 24 (SD) (patients with MF [1]; N = 11): -31.3 (85.45) %
- Itching (pruritus), Mean percent change from baseline at Week 24 (SD) (patients with MF [1]; N = 12): -62.6 (45.35) %
- Abdominal pain, Mean percent change from baseline at Week 24 (SD) (patients with MF [1]; N = 16): -54.2 (58.14) %
- Overall quality of life, Mean percent change from baseline at Week 24 (SD) (patients with MF [1]; N = 16): -38.1 (49.50) %
- Early satiety, Mean percent change from baseline at Week 24 (SD) (patients with MF [1]; N = 17): -42.2 (37.53) %
- Fatigue – worst, Mean percent change from baseline at Week 24 (SD) (patients with MF [1]; N = 18): -12.5 (63.55) %
- Total symptom score, Mean percent change from baseline at Week 24 (SD) (patients with MF [1]; N = 18): -27.5 (39.01) %
- Evaluable patients with ≥50% reduction in MF Quality of Life and Symptom Assessment total score (patients with MF [1]; week 24 (7/18)): 38.9%
- RBC transfusions, median (patients with MF [2]; phase 2, 16 transfused patients): 11 units
- Hematocrit, Median % change from baseline (patients with MF [2]; phase 2, Termination): 0.48%
- Hemoglobin, Median % change from baseline (patients with MF [2]; phase 2, Termination): 5.0%
- Leukocytes, Median % change from baseline (patients with MF [2]; phase 2, Termination): 15.49%
- Lymphocytes, Median % change from baseline (patients with MF [2]; phase 2, Termination): 39.87%
- Neutrophils, Median % change from baseline (patients with MF [2]; phase 2, Termination): -9.19%
- Platelets, Median % change from baseline (patients with MF [2]; phase 2, Termination): -5.4%
- Red blood cells, Median % change from baseline (patients with MF [2]; phase 2, Termination): 0.18%
- Hematocrit, Median % change from baseline (patients with MF [2]; phase 2, Week 2): 2.92%
- Hemoglobin, Median % change from baseline (patients with MF [2]; phase 2, Week 2): 5.3%
- Leukocytes, Median % change from baseline (patients with MF [2]; phase 2, Week 2): -5.93%
- Lymphocytes, Median % change from baseline (patients with MF [2]; phase 2, Week 2): 26.93%
- Neutrophils, Median % change from baseline (patients with MF [2]; phase 2, Week 2): -16.44%
- Platelets, Median % change from baseline (patients with MF [2]; phase 2, Week 2): -1.6%
- Red blood cells, Median % change from baseline (patients with MF [2]; phase 2, Week 2): 2.23%
- Hematocrit, Median % change from baseline (patients with MF [2]; phase 2, Week 4): 0.00%
- Hemoglobin, Median % change from baseline (patients with MF [2]; phase 2, Week 4): 2.2%
- Leukocytes, Median % change from baseline (patients with MF [2]; phase 2, Week 4): -26.77%
- Lymphocytes, Median % change from baseline (patients with MF [2]; phase 2, Week 4): -6.84%
- Neutrophils, Median % change from baseline (patients with MF [2]; phase 2, Week 4): -26.43%
- Platelets, Median % change from baseline (patients with MF [2]; phase 2, Week 4): -20.3%
- Red blood cells, Median % change from baseline (patients with MF [2]; phase 2, Week 4): 1.41%
- Hematocrit, Median % change from baseline (patients with MF [2]; phase 2, Week 6): 0.64%
- Hemoglobin, Median % change from baseline (patients with MF [2]; phase 2, Week 6): 9.1%
- Leukocytes, Median % change from baseline (patients with MF [2]; phase 2, Week 6): -5.58%
- Lymphocytes, Median % change from baseline (patients with MF [2]; phase 2, Week 6): 31.7%
- Neutrophils, Median % change from baseline (patients with MF [2]; phase 2, Week 6): -9.32%
- Platelets, Median % change from baseline (patients with MF [2]; phase 2, Week 6): -3.6%
- Red blood cells, Median % change from baseline (patients with MF [2]; phase 2, Week 6): -1.65%
- Hematocrit, Median % change from baseline (patients with MF [2]; phase 2, Week 8): 2.01%
- Hemoglobin, Median % change from baseline (patients with MF [2]; phase 2, Week 8): 4.5%
- Leukocytes, Median % change from baseline (patients with MF [2]; phase 2, Week 8): -5.50%
- Lymphocytes, Median % change from baseline (patients with MF [2]; phase 2, Week 8): 12.65%
- Neutrophils, Median % change from baseline (patients with MF [2]; phase 2, Week 8): -19.76%
- Platelets, Median % change from baseline (patients with MF [2]; phase 2, Week 8): -4.5%
- Red blood cells, Median % change from baseline (patients with MF [2]; phase 2, Week 8): 2.14%
- Hematocrit, Median % change from baseline (patients with MF [2]; phase 2, Week 10): -3.57%
- Hemoglobin, Median % change from baseline (patients with MF [2]; phase 2, Week 10): 8.2%
- Leukocytes, Median % change from baseline (patients with MF [2]; phase 2, Week 10): 7.90%
- Lymphocytes, Median % change from baseline (patients with MF [2]; phase 2, Week 10): 52.34%
- Platelets, Median % change from baseline (patients with MF [2]; phase 2, Week 10): -3.1%
- Red blood cells, Median % change from baseline (patients with MF [2]; phase 2, Week 10): -1.37%
- Neutrophils, Median % change from baseline (patients with MF [2]; phase 2, Week 10, n = 19): -1.44^b %
- Hematocrit, Median % change from baseline (patients with MF [2]; phase 2, Week 12): -3.31%
- Hemoglobin, Median % change from baseline (patients with MF [2]; phase 2, Week 12): -0.5%
- Leukocytes, Median % change from baseline (patients with MF [2]; phase 2, Week 12): -21.83%
- Lymphocytes, Median % change from baseline (patients with MF [2]; phase 2, Week 12): 20.88%
- Neutrophils, Median % change from baseline (patients with MF [2]; phase 2, Week 12): -31.39%
- Platelets, Median % change from baseline (patients with MF [2]; phase 2, Week 12): -7.7%
- Red blood cells, Median % change from baseline (patients with MF [2]; phase 2, Week 12): -1.81%
- Hematocrit, Median % change from baseline (patients with MF [2]; phase 2, Week 16): 3.11%
- Hemoglobin, Median % change from baseline (patients with MF [2]; phase 2, Week 16): 8.6%
- Leukocytes, Median % change from baseline (patients with MF [2]; phase 2, Week 16): -15.09%
- Lymphocytes, Median % change from baseline (patients with MF [2]; phase 2, Week 16): 22.22%
- Neutrophils, Median % change from baseline (patients with MF [2]; phase 2, Week 16): -33.04%
- Platelets, Median % change from baseline (patients with MF [2]; phase 2, Week 16): -20.1%
- Red blood cells, Median % change from baseline (patients with MF [2]; phase 2, Week 16): 6.16%
- Hematocrit, Median % change from baseline (patients with MF [2]; phase 2, Week 20): -1.30%
- Hemoglobin, Median % change from baseline (patients with MF [2]; phase 2, Week 20): 5.8%
- Leukocytes, Median % change from baseline (patients with MF [2]; phase 2, Week 20): -25.83%
- Lymphocytes, Median % change from baseline (patients with MF [2]; phase 2, Week 20): 37.07%
- Neutrophils, Median % change from baseline (patients with MF [2]; phase 2, Week 20): -32.93%
- Platelets, Median % change from baseline (patients with MF [2]; phase 2, Week 20): -11.7%
- Red blood cells, Median % change from baseline (patients with MF [2]; phase 2, Week 20): -0.30%
- Hematocrit, Median % change from baseline (patients with MF [2]; phase 2, Week 24): 3.01%
- Hemoglobin, Median % change from baseline (patients with MF [2]; phase 2, Week 24): 7.3%
- Leukocytes, Median % change from baseline (patients with MF [2]; phase 2, Week 24): -30.34%
- Lymphocytes, Median % change from baseline (patients with MF [2]; phase 2, Week 24): 44.14%
- Neutrophils, Median % change from baseline (patients with MF [2]; phase 2, Week 24): -43.24%
- Platelets, Median % change from baseline (patients with MF [2]; phase 2, Week 24): -23.7%
- Red blood cells, Median % change from baseline (patients with MF [2]; phase 2, Week 24): 2.46%
- Hematocrit, Median % change from baseline (patients with MF [2]; phase 2, Week 36): -2.91%
- Hemoglobin, Median % change from baseline (patients with MF [2]; phase 2, Week 36): -0.4%
- Leukocytes, Median % change from baseline (patients with MF [2]; phase 2, Week 36): -18.32%
- Lymphocytes, Median % change from baseline (patients with MF [2]; phase 2, Week 36): 58.89%
- Neutrophils, Median % change from baseline (patients with MF [2]; phase 2, Week 36): -33.96%
- Platelets, Median % change from baseline (patients with MF [2]; phase 2, Week 36): -23.4%
- Red blood cells, Median % change from baseline (patients with MF [2]; phase 2, Week 36): -3.15%
- Hematocrit, Median % change from baseline (patients with MF [2]; phase 2, Week 48): -2.39%
- Hemoglobin, Median % change from baseline (patients with MF [2]; phase 2, Week 48): 10.1%
- Leukocytes, Median % change from baseline (patients with MF [2]; phase 2, Week 48): -5.13%
- Lymphocytes, Median % change from baseline (patients with MF [2]; phase 2, Week 48): 61.70%
- Neutrophils, Median % change from baseline (patients with MF [2]; phase 2, Week 48): -28.84%
- Platelets, Median % change from baseline (patients with MF [2]; phase 2, Week 48): -16.3%
- Red blood cells, Median % change from baseline (patients with MF [2]; phase 2, Week 48): -3.87%
- Hematocrit, Median % change from baseline (patients with MF [2]; phase 2, Week 60): 3.70%
- Hemoglobin, Median % change from baseline (patients with MF [2]; phase 2, Week 60): 4.7%
- Leukocytes, Median % change from baseline (patients with MF [2]; phase 2, Week 60): -28.21%
- Lymphocytes, Median % change from baseline (patients with MF [2]; phase 2, Week 60): 40.43%
- Neutrophils, Median % change from baseline (patients with MF [2]; phase 2, Week 60): -40.17%
- Platelets, Median % change from baseline (patients with MF [2]; phase 2, Week 60): -31.3%
- Red blood cells, Median % change from baseline (patients with MF [2]; phase 2, Week 60): 1.48%
- Patients who received RBC transfusions (patients with MF [2]; [3]): 51.6%
- Patients who received platelet transfusions (patients with MF [2]; [3]): 9.7%
- Platelet transfusions, median (patients with MF [2]; phase 2, three transfused patients): 3 units
- Median neutrophil count, span over visits (patients with MF [2]; phase 2, through week 60): 3.83 to 6.00 × 10^9/L
- Median platelet count, span over visits (patients with MF [2]; phase 2, through week 60): 89 to 155 × 10^9/L
- Patients with hemoglobin levels <8 g/L (patients with MF [2]; phase 2, week 24 (1/20)): 5.0%
- Patients with leukocyte counts >25 × 10^9/L (patients with MF [2]; phase 2, week 24 (2/20)): 10.0%
- Patients with platelet counts <50 × 10^9/L (patients with MF [2]; phase 2, week 24 (2/20)): 10.0%
- Patients with hemoglobin levels <10 g/L (patients with MF [2]; phase 2, week 24 (10/20)): 50.0%
- Patients with platelet counts <100 × 10^9/L (patients with MF [2]; phase 2, week 24 (10/20)): 50.0%
